Where a name gives a salt, the structure may show the parent alone.
What follows are compounds tested on 40 different bacterial species (assay: Prestwick Chemical Library growth screen, whole panel (hits, anticommensal activity)). Details: 20 μM, 40 strains, FDR<0.01.
Assay type: cell-based, human gut isolates

With `O=c1[nH]c(=O)n([C@H]2C[C@H](O)[C@@H](CO)O2)cc1C(F)(F)F` [trifluridine] the “anticommensal activity in the screen (in words)” value was “anticommensal activity”.
In the case of `O=C1Nc2ccc(Cl)cc2[C@@](C#CC2CC2)(C(F)(F)F)O1` [efavirenz], the “anticommensal activity in the screen (in words)” value was “anticommensal activity”.

Same assay, conditions: number of species inhibited of 40 different bacterial species tested

In order of falling n_hit:
1. C[C@H]1O[C@H](O[C@H]2[C@H](O)[C@@H](O)[C@@H](O[C@H]3[C@H](O)[C@@H](O)C(O)O[C@@H]3CO)O[C@@H]2CO)[C@H](O)[C@@H](O)[C@@H]1N[C@H]1C=C(CO)[C@@H](O)[C@H](O)[C@H]1O (stereo partly shown) [Acarbose]  6
2. O=C(O)c1ccccc1Nc1cccc(C(F)(F)F)c1 [Flufenamic acid]  4
3. N[C@@H](Cc1cc(I)c(Oc2cc(I)c(O)c(I)c2)c(I)c1)C(=O)O [Thyroxine (L)]  3
4. O=C1CCc2ccc(OCCCCN3CCN(c4cccc(Cl)c4Cl)CC3)cc2N1 [Aripiprazole]  3
5. Nc1nc2ncc(CNc3ccc(C(=O)N[C@@H](CCC(=O)O)C(=O)O)cc3)nc2c(=O)[nH]1 [Folic acid]  2
6. C[C@@H]1C[C@H]2[C@@H]3CCC4=CC(=O)C=C[C@]4(C)[C@@]3(Cl)[C@@H](O)C[C@]2(C)[C@@]1(OC(=O)c1ccco1)C(=O)CCl [Mometasone furoate]  1

Same assay, conditions: number of the 40 bacterial species tested whose growth is inhibited; Table 7 broad-spectrum compounds

In order of rising n_hit:
1. C[C@@H](O[C@H]1OCCN(Cc2n[nH]c(=O)[nH]2)[C@H]1c1ccc(F)cc1)c1cc(C(F)(F)F)cc(C(F)(F)F)c1 [Aprepitant]  10
2. CSc1ccc2c(c1)C(N1CCN(C)CC1)Cc1ccccc1S2.O=C(O)/C=C\C(=O)O (stereo not shown) [Methiothepin maleate]  10
3. CCCCc1oc2ccccc2c1C(=O)c1cc(I)c(OCCN(CC)CC)c(I)c1 [Amiodarone hydrochloride]  10
4. COc1ccc(CCN2CCC(Nc3nc4ccccc4n3Cc3ccc(F)cc3)CC2)cc1 [Astemizole]  10
5. O=c1oc2ccccc2c(O)c1Cc1c(O)c2ccccc2oc1=O [Dicumarol]  10
6. CCN(CC)C(C)CN1c2ccccc2Sc2ccccc21 (stereo not shown) [Ethopropazine hydrochloride]  11
7. CCCCC(=O)O[C@H]1CC[C@H]2[C@@H]3CCc4cc(O)ccc4[C@H]3CC[C@]12C [Estradiol Valerate]  11
8. O=C1c2c(O)cccc2Cc2cccc(O)c21 [Anthralin]  11
9. Cc1c(C)c2c(c(C)c1O)CCC(C)(COc1ccc(CC3SC(=O)NC3=O)cc1)O2 (stereo not shown) [Troglitazone]  13
10. CC(C)COCC(CN(Cc1ccccc1)c1ccccc1)N1CCCC1 (stereo not shown) [Bepridil hydrochloride]  14
11. O=C(O)Cc1cc(I)c(Oc2ccc(O)c(I)c2)c(I)c1 [Tiratricol]  14
12. CCOC(=O)N1CCC(=C2c3ccc(Cl)cc3CCc3cccnc32)CC1 [Loratadine]  15
13. Clc1ccc(Cn2c(CN3CCCC3)nc3ccccc32)cc1 [Clemizole hydrochloride]  15

Same assay, conditions: number of the 40 strains inhibited at 20 μM (FDR<0.01)

In order of falling n_hit:
1. CC(C)(O)c1ccccc1CC[C@@H](SCC1(CC(=O)O)CC1)c1cccc(/C=C/c2ccc3ccc(Cl)cc3n2)c1 [Montelukast]  8
2. Cc1cccc(CN2CCN(C(c3ccccc3)c3ccc(Cl)cc3)CC2)c1 (stereo not shown) [Meclozine dihydrochloride]  8
3. CCOC(=O)C1=C(C)NC(C)=C(C(=O)OCC)C1c1ccccc1/C=C/C(=O)OC(C)(C)C [Lacidipine]  6
4. CC#C[C@]1(O)CC[C@H]2[C@@H]3CCC4=CC(=O)CCC4=C3[C@@H](c3ccc(N(C)C)cc3)C[C@@]21C [Mifepristone]  3
5. CCOC(=O)C1=C(COCCN)NC(C)=C(C(=O)OC)C1c1ccccc1Cl (stereo not shown) [Amlodipine]  2
6. O=C(O)Cc1sc(-c2ccccc2)nc1-c1ccc(Cl)cc1 [Fentiazac]  1

The compounds below were run on Clostridium difficile (NT5083) (assay: Prestwick Chemical Library growth screen (OD578 growth curves, AUC)). Details: screen at 20 μM.
Assay type: cell-based

`CC#C[C@]1(O)CC[C@H]2[C@@H]3CCC4=CC(=O)CCC4=C3[C@@H](c3ccc(N(C)C)cc3)C[C@@]21C` [Mifepristone] was tested, and the “inhibition of the growth of C. difficile bacteria (in words)” value (“inhibition” for short) was “effective in inhibiting the growth”.
For `CCOC(=O)C1=C(C)NC(C)=C(C(=O)OCC)C1c1ccccc1/C=C/C(=O)OC(C)(C)C` [Lacidipine], the “inhibition” value was “effective in inhibiting the growth”.
For `Cc1cccc(CN2CCN(C(c3ccccc3)c3ccc(Cl)cc3)CC2)c1` (stereo not shown) [Meclozine dihydrochloride], the “inhibition” value was “effective in inhibiting the growth”.
For `O=C(O)Cc1sc(-c2ccccc2)nc1-c1ccc(Cl)cc1` [Fentiazac], the “inhibition” value was “effective in inhibiting the growth”.

Reference: patent US11766427B2, “Repurposing compounds for the treatment of infections and for modulating the composition of the gut microbiome” (EUROPEAN MOLECULAR BIOLOGY LABORATORY, priority 2018, dated 2023)
